# Measurements reported in PubChem BioAssay (NCI).
#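 These data come from cells grown in 96-well plates and exposed to compound for 48 hours at five concentrations. Abbreviation: GI50, concentration required for 50% inhibition of growth. TGI is the concentration that stops growth completely.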
# What was measured:
# Test in all cases: NCI anticancer screen, dose series, 48 h
# [1] = tested on: MDA-MB-435
# [2] = tested on: SNB-19 CNS
# [3] = tested on: HCC-2998 colon
# [4] = tested on: BT-549 breast
# [5] = tested on: CAKI-1 renal
# [6] = tested on: SNB-75 CNS
# [7] = tested on: OVCAR-3 ovarian
# [8] = tested on: OVCAR-4 ovarian
# [9] = tested on: SR leukemia
# [10] = tested on: CCRF-CEM leukemia
# [11] = tested on: 786-0 renal
# [12] = tested on: UACC-257 melanoma
# [13] = tested on: NCI/ADR-RES ovarian
# [14] = tested on: SF-268 CNS
# [15] = tested on: SW-620 colon
# [16] = tested on: DU-145 prostate
# [17] = tested on: EKVX NSCLC
# [18] = tested on: A498 renal
# [19] = tested on: MALME-3M melanoma
# [20] = tested on: NCI-H226 lung
# [21] = tested on: ACHN renal
# [22] = tested on: SF-539 CNS
# [23] = tested on: K-562 leukemia
# [24] = tested on: SK-OV-3 ovarian
# [25] = tested on: HOP-62 NSCLC
# [26] = tested on: TK-10 renal
# [27] = tested on: T-47D breast
# [28] = tested on: SK-MEL-28 melanoma
# [29] = tested on: HT29 colon
# [30] = tested on: NCI-H23 lung
# [31] = tested on: SF-295 CNS
# [32] = tested on: HL-60(TB) leukemia
# [33] = tested on: IGROV1 ovarian
# [34] = tested on: SN12C renal
# [35] = tested on: RXF 393 renal
# [36] = tested on: PC-3 prostate
# [37] = tested on: MDA-MB-231 breast
# [38] = tested on: HCT-15 colon
# [39] = tested on: MOLT-4 leukemia
# [40] = tested on: OVCAR-8 ovarian
# [41] = tested on: UO-31 renal
# [42] = tested on: OVCAR-5 ovarian
# [43] = tested on: A549 NSCLC
# [44] = tested on: M14 melanoma
# [45] = tested on: KM12 colon
# [46] = tested on: LOX IMVI melanoma
# [47] = tested on: RPMI-8226 leukemia
# [48] = tested on: SK-MEL-2 melanoma
structure (smiles),measurement,setting,value
COc1cc2c(cc1OCCCOc1cc3c(cc1OC)C(=O)N1CCC[C@H]1CN3)N=C[C@@H]1CCCN1C2=O,TGI,[1],290 nM
same,TGI,[2],> 100000 nM
same,GI50,[3],172 nM
same,TGI,[3],468 nM
same,TGI,[4],10300 nM
same,TGI,[5],1880 nM
same,TGI,[6],2890 nM
same,TGI,[7],342 nM
same,TGI,[8],> 36500 nM
same,TGI,[9],26.5 nM
same,TGI,[10],> 100000 nM
same,TGI,[11],2180 nM
same,TGI,[12],516 nM
same,TGI,[13],24800 nM
same,TGI,[14],473 nM
same,TGI,[15],> 32400 nM
same,TGI,[16],> 37700 nM
same,TGI,[17],> 49000 nM
same,GI50,[18],262 nM
same,TGI,[18],668 nM
same,TGI,[19],268 nM
same,TGI,[20],398 nM
same,TGI,[21],359 nM
same,TGI,[22],411 nM
same,TGI,[23],483 nM
same,TGI,[24],> 100000 nM
same,TGI,[25],892 nM
same,TGI,[26],554 nM
same,TGI,[27],> 100000 nM
same,TGI,[28],749 nM
same,TGI,[29],13700 nM
same,TGI,[30],709 nM
same,TGI,[31],671 nM
same,TGI,[32],680 nM
same,TGI,[33],451 nM
same,TGI,[34],> 33000 nM
same,TGI,[35],2550 nM
same,TGI,[36],8400 nM
same,TGI,[37],16600 nM
same,TGI,[38],> 24500 nM
same,TGI,[39],148 nM
same,TGI,[40],1280 nM
same,TGI,[41],> 100000 nM
same,TGI,[42],1320 nM
same,TGI,[43],> 28100 nM
same,TGI,[44],240 nM
same,TGI,[45],327 nM
same,TGI,[46],10800 nM
same,GI50,[47],156 nM
same,TGI,[47],654 nM
same,TGI,[48],365 nM
